{"source": "patent US10092566B2", "about": "“Composition for controlling a gut immunity and use thereof” (SEOUL NATIONAL UNIVERSITY R&DB FOUNDATION, priority 2013, dated 2018)", "key": {"E. carotovora-pyrE::Tn5 [1]": {"test_system": "E. carotovora-pyrE::Tn5", "test": "Bacterial persistence in the midgut (CFU)", "type": "in vivo, Erwinia carotovora", "details": "coingestion of 1 nM uracil with E. carotovora-pyrE::Tn5; CFU 6 hours after ingestion", "procedure": "To measure gut sustainability of E. carotovora strains (E. carotovora, E. carotovora-pyrE::Tn5, and E. carotovora-pyrE::Tn5-pyrE), a 5% sucrose solution containing approx. 10^10 cells of E. carotovora strains were orally administered to female adult Drosophila (5 to 6 days old) for 2 hours. Midguts were dissected at 6 hours after ingestion. Midguts, posterior guts, and crops of which the surfaces were sterilized were homogenized and diluted accordingly. These were smeared on a Luria-Bertani agar plate, and some of colony-forming units (CFUs) were obtained from each midgut. During the recovery experiment, the coingestion of E. carotovora-pyrE::Tn5 (+uracil) and 1 nM of uracil or the expression of an E. carotovora-pyrE::Tn5 strain, which was genetically recovered by the expression of functional pyrE genes (+pyrE), was utilized."}, "E. carotovora-pyrE::Tn5 [2]": {"test_system": "E. carotovora-pyrE::Tn5", "test": "Gut infection and survival analysis", "type": "in vivo, Erwinia carotovora", "details": "coingestion of 1 nM uracil with E. carotovora-pyrE::Tn5", "description": "During the late exponential phase, different bacteria (E. carotovora, E. carotovora-pyrE::Tn5, E. carotovora-pyrE::Tn5-pyrE, E. carotovora-guaA::Tn5, and E. carotovora-purC::Tn5) were obtained by the centrifugation, and the pellets were washed with PBS and suspended in a 5% sucrose solution. Without a hunger stage, to continuously provide Drosophila with bacteria while being infected, male adult Drosophila (5 to 6 days old) were moved to the bottle with filter paper soaked with a 5% sucrose solution containing different bacteria. The filter paper was changed every day. During the recovery experiment, the coingestion of E. carotovora-pyrE::Tn5 (+uracil) and 1 nM of uracil or the expression of an E. carotovora-pyrE::Tn5 strain, which was genetically recovered by the expression of functional pyrE genes (+pyrE), was utilized."}, "p38": {"test_system": "p38", "test": "p38 activation by phospho-p38 immune staining of midgut", "type": "in vivo, Drosophila", "details": "uracil 20 nM for 2 hours", "procedure": "To examine uracil-induced p38 activation, a 5% sucrose solution containing 20 nM of uracil was orally administered to genetically different adult Drosophila (5 to 6 days old) for 2 hours. Midguts were dissected in PBS and fixed with 4% paraformaldehyde for 15 minutes. The midguts were washed three times with PBS containing 0.1% of Triton X-100 for 5 minutes and were cultured in the above solution with additional 5% cow blood serum albumin for 1 hour. Next, the sample was cultured with additional phospho-specific anti-p38 antibody (1:500 dilution; Millipore, Milford, Mass., USA) at 4° C. for 16 hours. The sample was washed five times with PBS containing 0.1% Triton X-100 for 5 minutes and cultured at room temperature for 20 minutes after adding secondary antibodies (1:500 dilution; Alexa Fluor 568 goat anti-rabbit IgG; Invitrogen, Carlsbad, Calif., USA). After washing the sample three times with PBS containing 0.1% Triton X-100 for 5 minutes, the sample was mounted with mounting buffer solution (Vectorshield, Vector Laboratories Inc., Burlingame, Calif., USA) and was analyzed by LSM 700 confocal microscopy (Carl Zeiss, Oberkochen, Germany)"}, "DUOX2": {"test_system": "DUOX2", "test": "ROS measurement in human epithelial cells (Caco-2, NHNE; DCF-DA)", "type": "cell-based", "details": "uracil 50 nM, 15 minutes; Caco-2 and normal human nasal epithelial cells", "description": "Human middle turbinated bone specimens were obtained from healthy volunteers after the research proposal was approved by Yonsei University College of Medicine Audit Committee. The culture system used for normal human nasal epithelial (NHNE) cells is disclosed in the previous research (Yoon et al., Am J Respir Cell Mol Biol 16, pp. 724-731, 1997; Yoon et al., Ann Otol Rhinol Laryngol 109, pp. 594-601, 2000). Briefly speaking, two passages of NHNE cells (1×10^5 cells/culture) were inoculated into a Transwell-transparent culturing insert characterized by 24.5 mm and 0.45 μm pore sizes (Costar Co., Corning, N.Y., USA) containing 0.5 mL of culturing media. The cells were cultured in a 1:1 mixture containing basic epithelium growth media including all additives disclosed in the previous research (Yoon et al., Ann Otol Rhinol Laryngol 109, pp. 594-601, 2000) and Dulbecco' s Modified Eagle Medium (DMEM). […]\nAfter stimulating NHNE cells or Caco-2 cells, the cells were washed with Hanks' balanced salt solution (HBSS), were placed in Krebs-Ringer solution containing 5 μM of 2′,7′-dichlorofluorescin diacetate (DCF-DA; Molecular Probes, Eugene Oreg., USA), and cultured in darkness for 10 minutes. […] Fluorescence was measured at an excitation wavelength of 488 nm and an emission wavelength ranging from 515 nm to 540 nm. […]"}}, "data": [{"smiles": "O=c1cc[nH]c(=O)[nH]1", "note": "[uracil]", "values": [{"measurement": "prolonged midgut persistence of URA− pathogens", "setting": "E. carotovora-pyrE::Tn5 [1]", "result": "abolished"}, {"measurement": "host survival rate after URA− pathogen infection", "setting": "E. carotovora-pyrE::Tn5 [2]", "result": "sufficient to restore the host survival rate"}, {"measurement": "p38 MAPK activation", "setting": "p38", "result": "p38 MAPK activation"}, {"measurement": "DUOX-dependent ROS generation in human mucosal epithelial cells", "setting": "DUOX2", "result": "able to activate DUOX-dependent ROS generation"}]}]}
